Experimental data: patent EP0565593B1, “REDUCING PESTICIDAL INTERACTIONS IN CROPS” (priority 1990, dated 1992)

Tests used:
Type in all cases: in vivo
Corn [1] = test: Greenhouse test, combination of Procedures II and III: insecticide in-furrow or in cover layer, herbicide and antidote incorporated in cover layer (Examples 1-3, 6; Tables 1-3, 6); conditions: for % Injury Corn / % Corn Injury PN 3320 / % Corn Injury PN 3377: 3 weeks; for Percent Injury Corn: 7 weeks
[2] = system: velvetleaf (Abutilon theophrasti); test: Greenhouse test, combination of Procedures II and III (Examples 1, 2; Tables 1, 2); conditions: for % Injury VELE: 3 weeks; for Percent Injury VELE: 7 weeks
Corn [3] = test: Greenhouse test Procedure II: herbicide, insecticide and antidote incorporated in cover layer (Example 4; Table 4); conditions: 3 weeks
Outline: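 Herbicide, insecticide and antidote in acetone were track-sprayed sequentially onto a soil cover layer, incorporated and spread over seeded beds in silt loam. Initial overhead irrigation equal to 0.6 cm rainfall, then sub-irrigation in the greenhouse. Injury was rated 3 weeks after treatment against untreated and herbicide-only controls.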

Corn [4] = test: Greenhouse test Procedure I with PPI or POE herbicide and foliar insecticide (Example 5; Table 5)
Procedure: Containers were filled and compacted with a fumigated silt loam top soil to a depth of about 1.3 cm from the top of the container. A first container was designated as an untreated control, a second container was designated as a herbicide control, and a third container was designated as a herbicide + antidote test container. Each of the containers was seeded with a crop species. A measured amount of herbicide dispersed or dissolved in acetone was applied to a measured quantity of soil. To this same quantity of soil treated with herbicide, there was added a measured amount of antidote dispersed or dissolved in acetone. The quantity of soil treated with the herbicide and antidote was thoroughly mixed to incorporate the herbicide and antidote in the soil uniformly. The seed bed in the third container of soil was covered with the soil treated with the herbicide and antidote and the container was leveled. For each test series, the seed beds of the first and second containers were likewise covered by soil layers. the cover layer of the first container was not treated with herbicide or antidote.
Insecticide application was made as described in the tests in the examples below. The containers were then placed on a bench in a greenhouse and sub-irrigated as required for the duration of the test.
Said herbicide and antidote were sequentially pipetted onto cover layers, which were spread over the seed beds and subirrigated as in Procedure I and allowed to grow to a height of about 10 cm over a period of 11 days. Herbicide No. 1 and Insecticide No. 2 were then sequentially sprayed on the plant foliage. Observations were made three (3) weeks after initial treatment, 10 days after foliar treatment).

[5] = Ex. 2: Insecticide 1 0.11 kg/305m + Herbicide 1 0.14 Kg/Ha
[6] = Ex. 2: Insecticide 1 0.11 kg/305m + Herbicide 1 0.56 Kg/Ha
[7] = Ex. 2: Insecticide 1 0.23 Kg/305m + Herbicide 1 0.14 + Herbicide 2 4.48 Kg/Ha
[8] = Ex. 2: Insecticide 1 0.23 Kg/305m + Herbicide 1 0.14 Kg/Ha
[9] = Ex. 2: Insecticide 1 0.23 Kg/305m + Herbicide 1 0.56 Kg/Ha
[10] = Ex. 2: Insecticide 2 3.36 Kg/Ha + Herbicide 1 0.14 + Herbicide 2 4.48 Kg/Ha
[11] = Ex. 6: Insecticide 1 0.23 Kg/305m + Herbicide 1 0.14 Kg/Ha
[12] = Ex. 6: Insecticide 1 0.23 Kg/305m + Herbicide 1 0.56 Kg/Ha
[13] = Ex. 6: Insecticide 2 0.23 Kg/305m + Herbicide 1 0.14 Kg/Ha
[14] = Ex. 6: Insecticide 2 0.23 Kg/305m + Herbicide 1 0.56 Kg/Ha
[15] = Insecticide 1 0.23 kg/305m + Herbicide 1 0.14 Kg/Ha
[16] = Insecticide 1 0.23 kg/305m + Herbicide 1 0.56 Kg/Ha
[17] = Insecticide 1 0.23 kg/305m + Herbicide 1 2.24 Kg/Ha
[18] = Insecticide 2 3.36 kg/ha + Herbicide 1 0.14 Kg/Ha
[19] = Insecticide 2 3.36 kg/ha + Herbicide 1 0.56 Kg/Ha
[20] = Insecticide 2 3.36 kg/ha + Herbicide 1 2.24 Kg/Ha

Structure (SMILES): COC(=O)c1c(Cl)nn(C)c1S(=O)(=O)NC(=O)Nc1nc(OC)cc(OC)n1 [Herbicide No. 1, N-[(4,6-dimethoxypyrimidin-2-yl)aminocarbonyl]-3-chloro-4-methoxycarbonyl-5-sulfonamide, reference compound]
- % Injury Corn (Corn [1]; Ex. 2: Herbicide 1 0.14 Kg/Ha): 4%
- % Injury Corn (Corn [1]; Ex. 2: Herbicide 1 0.56 Kg/Ha): 58%
- injury to corn (Corn [1]; Ex. 2: Herbicide No. 1 0.14 kg/ha + Insecticide No. 2, no antidote): 65%
- % Injury Corn (Corn [1]; [5]): 83%
- % Injury Corn (Corn [1]; [6]): 93%
- % Injury Corn (Corn [1]; [7]): 90%
- % Injury Corn (Corn [1]; [8]): 83%
- % Injury Corn (Corn [1]; [9]): 96%
- % Injury Corn (Corn [1]; [10]): 83%
- % Injury Corn (Corn [1]; Ex. 3: Herbicide 1 0.14 Kg/Ha): 10%
- % Injury Corn (Corn [1]; Ex. 3: Herbicide 1 0.56 Kg/Ha): 63%
- % Injury Corn (Corn [1]; Ex. 3: Insecticide 3 (227 g) + Herbicide 1 0.14 + Herbicide 2 4.48 Kg/Ha): 73%
- % Injury Corn (Corn [1]; Ex. 3: Insecticide 3 (227g) + Herbicide 1 0.14 Kg/Ha): 45%
- % Injury Corn (Corn [1]; Ex. 3: Insecticide 3 (227g) + Herbicide 1 0.56 Kg/Ha): 93%
- % Injury Corn (Corn [1]; Ex. 3: Insecticide 4 (227g) + Herbicide 1 0.14 + Herbicide 2 4.48 Kg/Ha): 88%
- % Injury Corn (Corn [1]; Ex. 3: Insecticide 4 (227g) + Herbicide 1 0.14 Kg/Ha): 55%
- % Injury Corn (Corn [1]; Ex. 3: Insecticide 4 (227g) + Herbicide 1 0.56 Kg/Ha): 45%
- % Corn Injury PN 3320 (Corn [1]; Ex. 6: Herbicide 1 0.14 Kg/Ha): 85%
- % Corn Injury PN 3377 (Corn [1]; Ex. 6: Herbicide 1 0.14 Kg/Ha): 12%
- % Corn Injury PN 3320 (Corn [1]; Ex. 6: Herbicide 1 0.56 Kg/Ha): 88%
- % Corn Injury PN 3377 (Corn [1]; Ex. 6: Herbicide 1 0.56 Kg/Ha): 23%
- % Corn Injury PN 3320 (Corn [1]; [11]): 95%
- % Corn Injury PN 3377 (Corn [1]; [11]): 78%
- % Corn Injury PN 3320 (Corn [1]; [12]): 95%
- % Corn Injury PN 3377 (Corn [1]; [12]): 90%
- % Corn Injury PN 3320 (Corn [1]; [13]): 85%
- % Corn Injury PN 3377 (Corn [1]; [13]): 48%
- % Corn Injury PN 3320 (Corn [1]; [14]): 88%
- % Corn Injury PN 3377 (Corn [1]; [14]): 90%
- Percent Injury Corn (Corn [1]; Herbicide 1 0.14 Kg/Ha): 18%
- Percent Injury Corn (Corn [1]; Herbicide 1 0.56 Kg/Ha): 58%
- Percent Injury Corn (Corn [1]; Herbicide 1 2.24 Kg/Ha): 85%
- Percent Injury Corn (Corn [1]; [15]): 85%
- Percent Injury Corn (Corn [1]; [16]): 97%
- Percent Injury Corn (Corn [1]; [17]): 95%
- Percent Injury Corn (Corn [1]; [18]): 60%
- Percent Injury Corn (Corn [1]; [19]): 90%
- Percent Injury Corn (Corn [1]; [20]): 95%
- % Injury VELE ([2]; Ex. 2: Herbicide 1 0.14 Kg/Ha): 89%
- % Injury VELE ([2]; Ex. 2: Herbicide 1 0.56 Kg/Ha): 93%
- % Injury VELE [2, 5]: 93%
- % Injury VELE [2, 6]: 94%
- % Injury VELE [2, 7]: 95%
- % Injury VELE [2, 8]: 83%
- % Injury VELE [2, 9]: 95%
- % Injury VELE [2, 10]: 88%
- Percent Injury VELE ([2]; Herbicide 1 0.14 Kg/Ha): 90%
- Percent Injury VELE ([2]; Herbicide 1 0.56 Kg/Ha): 95%
- Percent Injury VELE ([2]; Herbicide 1 2.24 Kg/Ha): 92%
- Percent Injury VELE [2, 15]: 90%
- Percent Injury VELE [2, 16]: 92%
- Percent Injury VELE [2, 17]: 95%
- Percent Injury VELE [2, 18]: 78%
- Percent Injury VELE [2, 19]: 92%
- Percent Injury VELE [2, 20]: 92%
- % Injury Corn (Corn [3]; Herbicide 1 0.07 kg/Ha): 2%
- % Injury Corn (Corn [3]; Herbicide 1 0.14 kg/Ha): 13%
- % Injury Corn (Corn [3]; Insecticide 2 3.36 + Herbicide 1 0.07 kg/Ha): 0%
- % Injury Corn (Corn [3]; Insecticide 2 3.36 + Herbicide 1 0.14 kg/Ha): 38%
- % Injury Corn (Corn [4]; Herbicide 1 0.07 Kg/Ha POE, 10 days after foliar treatment): 0%
- % Injury Corn (Corn [4]; Herbicide 1 0.14 Kg/Ha PPI, 3 weeks): 5%
- % Injury Corn (Corn [4]; Herbicide 1 0.28 Kg/Ha POE, 10 days after foliar treatment): 15%
- % Injury Corn (Corn [4]; Herbicide 1 0.56 Kg/Ha PPI, 3 weeks): 28%
- % Injury Corn (Corn [4]; Herbicide 1 1.12 Kg/Ha POE, 10 days after foliar treatment): 7%
- % Injury Corn (Corn [4]; Herbicide 1 2.24 Kg/Ha PPI, 3 weeks): 58%
- % Injury Corn (Corn [4]; Insecticide 2 1.68 (foliar) + Herbicide 1 0.14 Kg/Ha PPI, 3 weeks): 18%
- % Injury Corn (Corn [4]; Insecticide 2 1.68 (foliar) + Herbicide 1 0.56 Kg/Ha PPI, 3 weeks): 10%
- % Injury Corn (Corn [4]; Insecticide 2 1.68 (foliar) + Herbicide 1 2.24 Kg/Ha PPI, 3 weeks): 87%
- % Injury Corn (Corn [4]; Insecticide 2 1.68 + Herbicide 1 0.07 Kg/Ha POE, 10 days after foliar treatment): 10%
- % Injury Corn (Corn [4]; Insecticide 2 1.68 + Herbicide 1 0.28 Kg/Ha POE, 10 days after foliar treatment): 10%
